Assay in all cases: relative viability (nuclei count vs DMSO), 5 days (fraction); higher = more cells survive
Compound in the assay “Crenolanib + Palbociclib”: CC1(COc2ccc3c(c2)ncn3-c2ccc3cccc(N4CCC(N)CC4)c3n2)COC1 [Crenolanib] + CC(=O)c1c(C)c2cnc(Nc3ccc(N4CCNCC4)cn3)nc2n(C2CCCC2)c1=O [Palbociclib] (partner 0.5 µM)
An outline of the steps:
(§1)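 After 5 days of treatment, lung cancer cells in 1536-well plates were fixed and stained in a single step (final 0.05% Triton X-100, 1% formaldehyde, 1 ug/ml Hoechst) and their nuclei counted on 4× images. Treatment had been applied by pin tool the day after seeding as one drug alone or as a fixed anchor-drug dose with five library-drug doses (not always all listed) in √10 steps. Relative viability is the nuclei count of treated wells divided by that of vehicle wells, and values are medians of duplicate plates.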

Compound in the assay “Tivantinib + Palbociclib”: O=C1NC(=O)[C@@H](c2cn3c4c(cccc24)CCC3)[C@@H]1c1c[nH]c2ccccc12 [Tivantinib] + CC(=O)c1c(C)c2cnc(Nc3ccc(N4CCNCC4)cn3)nc2n(C2CCCC2)c1=O [Palbociclib] (partner 0.5 µM)
The method in brief: as §1

Compound in the assay “Tivantinib + Pictilisib”: O=C1NC(=O)[C@@H](c2cn3c4c(cccc24)CCC3)[C@@H]1c1c[nH]c2ccccc12 [Tivantinib] + CS(=O)(=O)N1CCN(Cc2cc3nc(-c4cccc5[nH]ncc45)nc(N4CCOCC4)c3s2)CC1 [Pictilisib] (partner 1 µM)
An outline of the steps: as §1

Compound in the assay “Tivantinib + Olaparib”: O=C1NC(=O)[C@@H](c2cn3c4c(cccc24)CCC3)[C@@H]1c1c[nH]c2ccccc12 [Tivantinib] + O=C(c1cc(Cc2n[nH]c(=O)c3ccccc23)ccc1F)N1CCN(C(=O)C2CC2)CC1 [Olaparib] (partner 8 µM)
An outline of the steps: as §1

Take 201T: the relative viability with Crenolanib + Palbociclib (first compound 0.01 µM) is 0.363; with Crenolanib + Palbociclib (first compound 0.03162 µM), 0.349; with Crenolanib + Palbociclib (first compound 0.1 µM), 0.341; in the assay with Crenolanib + Palbociclib (first compound 0.3162 µM) it was 0.37; with Crenolanib + Palbociclib (first compound 1 µM), 0.337; in the assay with Tivantinib + Palbociclib (first compound 0.01 µM), 0.368. Further, the relative viability stood at 0.386 with Tivantinib + Palbociclib (first compound 0.03162 µM); 0.364 with Tivantinib + Palbociclib (first compound 0.1 µM); 0.348 with Tivantinib + Palbociclib (first compound 0.3162 µM); 0.713 with Tivantinib + Pictilisib (first compound 0.01 µM); 0.569 with Tivantinib + Pictilisib (first compound 0.03162 µM); 0.673 with Tivantinib + Pictilisib (first compound 0.1 µM). The relative viability with Tivantinib + Pictilisib (first compound 0.3162 µM) amounted to 0.694; with Tivantinib + Olaparib (first compound 0.01 µM), 0.837; in the assay with Tivantinib + Olaparib (first compound 0.03162 µM), 0.794; with Tivantinib + Olaparib (first compound 0.1 µM), 0.817; in the assay with Tivantinib + Olaparib (first compound 0.3162 µM), 0.831.

As for A549, the relative viability amounted to 0.495 in the assay with Tivantinib + Pictilisib (first compound 0.01 µM); 0.518 with Tivantinib + Pictilisib (first compound 0.03162 µM); 0.468 with Tivantinib + Pictilisib (first compound 0.1 µM); 0.449 with Tivantinib + Pictilisib (first compound 0.3162 µM); 0.204 with Tivantinib + Olaparib (first compound 0.01 µM); 0.253 with Tivantinib + Olaparib (first compound 0.03162 µM). For the same cell line, the relative viability with Tivantinib + Olaparib (first compound 0.1 µM) was 0.301; in the assay with Tivantinib + Olaparib (first compound 0.3162 µM) it was 0.214.

For A-427, the relative viability in the assay with Crenolanib + Palbociclib (first compound 0.01 µM) was determined as 0.542; with Crenolanib + Palbociclib (first compound 0.1 µM), 0.554; with Crenolanib + Palbociclib (first compound 0.3162 µM), 0.569; with Crenolanib + Palbociclib (first compound 1 µM), 0.51; in the assay with Tivantinib + Palbociclib (first compound 0.01 µM), 0.547; with Tivantinib + Palbociclib (first compound 0.03162 µM), 0.551. Besides, the relative viability with Tivantinib + Palbociclib (first compound 0.1 µM) worked out at 0.484; in the assay with Tivantinib + Palbociclib (first compound 0.3162 µM) it was 0.507; in the assay with Tivantinib + Pictilisib (first compound 0.01 µM), 0.663; in the assay with Tivantinib + Pictilisib (first compound 0.03162 µM), 0.702; with Tivantinib + Pictilisib (first compound 0.1 µM), 0.677; in the assay with Tivantinib + Pictilisib (first compound 0.3162 µM), 0.749. For the same cell line, the relative viability in the assay with Tivantinib + Olaparib (first compound 0.01 µM) is 0.761; with Tivantinib + Olaparib (first compound 0.03162 µM), 0.794; with Tivantinib + Olaparib (first compound 0.1 µM), 0.723; with Tivantinib + Olaparib (first compound 0.3162 µM), 0.685.

In the case of ABC-1, the relative viability in the assay with Crenolanib + Palbociclib (first compound 0.01 µM) stood at 0.775; with Crenolanib + Palbociclib (first compound 0.03162 µM) it was 0.638; with Crenolanib + Palbociclib (first compound 0.1 µM) it was 0.549; in the assay with Crenolanib + Palbociclib (first compound 0.3162 µM) it was 0.643; with Crenolanib + Palbociclib (first compound 1 µM), 0.899; with Tivantinib + Palbociclib (first compound 0.01 µM), 0.689. Moreover, the relative viability with Tivantinib + Palbociclib (first compound 0.03162 µM) turned out to be 0.567; in the assay with Tivantinib + Palbociclib (first compound 0.1 µM), 0.577; with Tivantinib + Palbociclib (first compound 0.3162 µM), 0.46; with Tivantinib + Pictilisib (first compound 0.01 µM) it was 0.802; in the assay with Tivantinib + Pictilisib (first compound 0.03162 µM), 0.51; in the assay with Tivantinib + Pictilisib (first compound 0.1 µM), 0.681. Further, the relative viability with Tivantinib + Pictilisib (first compound 0.3162 µM) was determined as 0.731; with Tivantinib + Olaparib (first compound 0.01 µM), 0.875; with Tivantinib + Olaparib (first compound 0.03162 µM), 1.17; in the assay with Tivantinib + Olaparib (first compound 0.1 µM), 0.626; with Tivantinib + Olaparib (first compound 0.3162 µM) it was 0.955.

Regarding BEN, the relative viability came to 0.464 with Crenolanib + Palbociclib (first compound 0.01 µM); 0.482 with Crenolanib + Palbociclib (first compound 0.03162 µM); 0.48 in the assay with Crenolanib + Palbociclib (first compound 0.1 µM); 0.524 with Crenolanib + Palbociclib (first compound 0.3162 µM); 0.497 in the assay with Crenolanib + Palbociclib (first compound 1 µM); 0.446 in the assay with Tivantinib + Palbociclib (first compound 0.01 µM). In addition, the relative viability with Tivantinib + Palbociclib (first compound 0.03162 µM) was 0.474; in the assay with Tivantinib + Palbociclib (first compound 0.1 µM), 0.508; with Tivantinib + Palbociclib (first compound 0.3162 µM), 0.447; with Tivantinib + Pictilisib (first compound 0.01 µM), 0.703; with Tivantinib + Pictilisib (first compound 0.03162 µM), 0.41; with Tivantinib + Pictilisib (first compound 0.1 µM), 0.501. Also, the relative viability was determined as 0.432 with Tivantinib + Pictilisib (first compound 0.3162 µM); 1.05 with Tivantinib + Olaparib (first compound 0.01 µM); 1.01 in the assay with Tivantinib + Olaparib (first compound 0.03162 µM); 0.961 in the assay with Tivantinib + Olaparib (first compound 0.1 µM); 0.857 with Tivantinib + Olaparib (first compound 0.3162 µM).

Consider CAL-12T, for which the relative viability is 0.423 with Crenolanib + Palbociclib (first compound 0.01 µM); 0.344 with Crenolanib + Palbociclib (first compound 0.03162 µM); 0.411 in the assay with Crenolanib + Palbociclib (first compound 0.1 µM); 0.457 with Crenolanib + Palbociclib (first compound 0.3162 µM); 0.41 with Crenolanib + Palbociclib (first compound 1 µM); 0.409 in the assay with Tivantinib + Palbociclib (first compound 0.01 µM). Besides, the relative viability in the assay with Tivantinib + Palbociclib (first compound 0.03162 µM) came to 0.345; in the assay with Tivantinib + Palbociclib (first compound 0.1 µM) it was 0.347; with Tivantinib + Palbociclib (first compound 0.3162 µM) it was 0.185; with Tivantinib + Pictilisib (first compound 0.01 µM) it was 0.393; with Tivantinib + Pictilisib (first compound 0.03162 µM), 0.377; in the assay with Tivantinib + Pictilisib (first compound 0.1 µM), 0.377. Moreover, the relative viability with Tivantinib + Pictilisib (first compound 0.3162 µM) turned out to be 0.265; with Tivantinib + Olaparib (first compound 0.01 µM) it was 0.731; in the assay with Tivantinib + Olaparib (first compound 0.03162 µM) it was 0.643; with Tivantinib + Olaparib (first compound 0.1 µM), 0.677; in the assay with Tivantinib + Olaparib (first compound 0.3162 µM) it was 0.613.

For COR-L23, the relative viability with Crenolanib + Palbociclib (first compound 0.01 µM) amounted to 0.245; with Crenolanib + Palbociclib (first compound 0.03162 µM), 0.319; with Crenolanib + Palbociclib (first compound 0.1 µM), 0.299; with Crenolanib + Palbociclib (first compound 0.3162 µM), 0.306; with Crenolanib + Palbociclib (first compound 1 µM) it was 0.266; with Tivantinib + Palbociclib (first compound 0.01 µM) it was 0.343. Also, the relative viability with Tivantinib + Palbociclib (first compound 0.03162 µM) is 0.304; with Tivantinib + Palbociclib (first compound 0.1 µM), 0.268; with Tivantinib + Palbociclib (first compound 0.3162 µM) it was 0.325; with Tivantinib + Pictilisib (first compound 0.01 µM), 0.809; with Tivantinib + Pictilisib (first compound 0.03162 µM), 0.63; with Tivantinib + Pictilisib (first compound 0.1 µM) it was 0.762. Further, the relative viability with Tivantinib + Pictilisib (first compound 0.3162 µM) was 0.98; in the assay with Tivantinib + Olaparib (first compound 0.01 µM), 0.339; in the assay with Tivantinib + Olaparib (first compound 0.03162 µM) it was 0.417; with Tivantinib + Olaparib (first compound 0.1 µM) it was 0.328; in the assay with Tivantinib + Olaparib (first compound 0.3162 µM), 0.326.

As for COR-L 105, the relative viability was determined as 0.435 with Crenolanib + Palbociclib (first compound 0.01 µM); 0.467 in the assay with Crenolanib + Palbociclib (first compound 0.03162 µM); 0.436 in the assay with Crenolanib + Palbociclib (first compound 0.1 µM); 0.379 with Crenolanib + Palbociclib (first compound 0.3162 µM); 0.417 in the assay with Crenolanib + Palbociclib (first compound 1 µM); 0.441 with Tivantinib + Palbociclib (first compound 0.01 µM). The relative viability amounted to 0.385 with Tivantinib + Palbociclib (first compound 0.03162 µM); 0.436 with Tivantinib + Palbociclib (first compound 0.1 µM); 0.375 with Tivantinib + Palbociclib (first compound 0.3162 µM); 0.401 in the assay with Tivantinib + Pictilisib (first compound 0.01 µM); 0.335 with Tivantinib + Pictilisib (first compound 0.03162 µM); 0.389 with Tivantinib + Pictilisib (first compound 0.1 µM). Besides, the relative viability worked out at 0.406 with Tivantinib + Pictilisib (first compound 0.3162 µM); 0.739 with Tivantinib + Olaparib (first compound 0.01 µM); 0.665 in the assay with Tivantinib + Olaparib (first compound 0.03162 µM); 0.729 in the assay with Tivantinib + Olaparib (first compound 0.1 µM); 0.585 with Tivantinib + Olaparib (first compound 0.3162 µM).

Consider Calu-6, for which the relative viability in the assay with Tivantinib + Pictilisib (first compound 0.01 µM) amounted to 0.917; with Tivantinib + Pictilisib (first compound 0.03162 µM), 0.931; in the assay with Tivantinib + Pictilisib (first compound 0.1 µM), 0.901; in the assay with Tivantinib + Pictilisib (first compound 0.3162 µM) it was 0.889; with Tivantinib + Olaparib (first compound 0.01 µM), 0.611; in the assay with Tivantinib + Olaparib (first compound 0.03162 µM), 0.572. Moreover, the relative viability with Tivantinib + Olaparib (first compound 0.3162 µM) turned out to be 0.564.

As for ChaGo-K-1, the relative viability was 0.955 in the assay with Crenolanib + Palbociclib (first compound 0.01 µM); 0.941 with Crenolanib + Palbociclib (first compound 0.03162 µM); 0.913 with Crenolanib + Palbociclib (first compound 0.1 µM); 0.821 with Crenolanib + Palbociclib (first compound 0.3162 µM); 0.986 with Crenolanib + Palbociclib (first compound 1 µM); 0.95 in the assay with Tivantinib + Palbociclib (first compound 0.01 µM). Moreover, the relative viability in the assay with Tivantinib + Palbociclib (first compound 0.03162 µM) was 0.946; with Tivantinib + Palbociclib (first compound 0.1 µM) it was 0.93; with Tivantinib + Palbociclib (first compound 0.3162 µM), 0.925; with Tivantinib + Pictilisib (first compound 0.01 µM) it was 0.851; in the assay with Tivantinib + Pictilisib (first compound 0.03162 µM) it was 0.608; in the assay with Tivantinib + Pictilisib (first compound 0.1 µM) it was 0.757. Also, the relative viability with Tivantinib + Pictilisib (first compound 0.3162 µM) is 0.646; with Tivantinib + Olaparib (first compound 0.01 µM), 0.401; with Tivantinib + Olaparib (first compound 0.03162 µM) it was 0.41; with Tivantinib + Olaparib (first compound 0.1 µM), 0.409; with Tivantinib + Olaparib (first compound 0.3162 µM), 0.398.

(Values after the supplement of paper PMC10307832.)
